Ends that are not written are not given here.
Experiments:
[1] = tested on: extracellular proteases; assay: Protease activity of AIP-I detached biofilm effluent with inhibitors or activators (Azocoll); assay type: biochemical, Staphylococcus aureus; conditions: EGTA 1 mM, PMSF 10 mM (method: 200 mM), DTT 1 mM
Method: (§1) Monitoring protease activity. Milk agar plates for detection of protease activity consisted of 3 g/L Tryptic Soy broth, 20 g/L non-fat dry milk, and 15 g/L agar. To determine relative protease activities of strains, assays were performed as described previously using the Azocoll (Calbiochem) reagent (Fournier et al., 2001). For measuring protease levels in biofilm effluents, 100 mL of effluent was collected on ice (about 12 hours) after AIP addition to the biofilm medium. Cells were removed from the effluents through centrifugation and filtering, and ammonium sulfate was added to 60% over one hour at 4° C. to concentrate proteins. The precipitated proteins were pelleted by centrifugation at 19,000 rpm for 30 min, and the pellet was washed and resuspended in 1 ml with 10 mM Tris pH 7.5. For the protease assay, the reaction mixture was supplemented with either 1 mM EGTA, 200 mM PMSF, or 1 mM DTT to gauge relative levels of protease classes.
There are 10 known extracellular proteases produced by most S. aureus strains and expression of all these enzymes is controlled by the agr system (Novick, 2003; Dunman et al., 2001; Ziebandt et al., 2004). These 10 proteases include the metalloprotease aureolysin (aur), two cysteine proteases (scpA and sspB), and seven serine proteases (sspA (V8) and sp1ABCDEF) (Dubin, 2002). To elucidate what class(es) of proteases are prevalent in AIP-treated biofilms, the effluent from a detaching biofilm was assayed for protease activity in the presence of protease inhibitors or activating agents.

[2] = tested on: extracellular proteases; assay: Protease activity in biofilm effluents after AIP addition (Azocoll); assay type: cell-based, Staphylococcus aureus; conditions: for protease activity in biofilm effluent relative to biofilm without AIP: wild-type SH1000 biofilm supplemented with AIP
Method: as §1
If S. aureus proteases have a role in detachment, proteinase K should be able to disperse an established biofilm. […] With this preliminary observation, the inventors measured the levels of protease activity in effluents from biofilms with and without AIP-I addition using Azocoll (azo dye-impregnated collagen) reagent. […] With the addition of activating AIP-I, the protease activity increased approximately five-fold compared to a biofilm with no AIP-I treatment.

[3] = tested on: FRI1169 (agr Type I) biofilm; assay: Flow cell biofilm detachment, agr-I strain; assay type: cell-based, Staphylococcus aureus; conditions: 2-day old biofilm, 50 nM cognate AIP, over 48 hours
Method: (§2) Biofilm experiments. Microtiter plate biofilms were performed as described (Shanks et al., 2005) except that the plates were incubated at 37° C. with shaking at 200 rpm for 12 hours. For flow cell experiments, AIPs were generated using the DnaB intein method, and the AIP concentrations were determined as previously described (Malone et al., 2007). AIPs stocks (20 mM) were stored in 100 mM phosphate (pH 7), 50 mM NaC1, 1 mM tris(2-carboxyethyl) phosphine (TCEP) and were diluted into the biofilm flow medium to a final concentration of 50 nM. When required, […] of erythromycin and/or chloramphenicol were added to the flow cell media to maintain plasmids. The growth medium for flow cell biofilms consisted of 2% TSB plus 0.2% glucose unless otherwise indicated. Flow cell biofilm experiments and confocal microscopy were performed as previously described (Yarwood et al., 2004). Flow cells were inoculated with overnight cultures diluted 1:100 in sterile water and laminar flow (170 ml/min) was initiated after one hour incubation. […] Biofilm biomass was quantified with the COMSTAT program (Heydorn et al., 2000) and percent biomass detached was calculated by subtracting biomass present at day 4 from day 2. To quantitate the number of bacteria detaching from a biofilm, 1 ml of flow cell effluent was collected on ice at indicated time points. […]

[4] = tested on: S. aureus SH1000 biofilm; assay: Flow cell biofilm detachment (CLSM, COMSTAT biomass, effluent CFU); assay type: cell-based, Staphylococcus aureus; conditions: for biomass detached: day 2 vs day 4
Method: Biofilm experiments. Microtiter plate biofilms were performed as described (Shanks et al., 2005) except that the plates were incubated at 37° C. with shaking at 200 rpm for 12 hours. For flow cell experiments, AIPs were generated using the DnaB intein method, and the AIP concentrations were determined as previously described (Malone et al., 2007). AIPs stocks (20 mM) were stored in 100 mM phosphate (pH 7), 50 mM NaC1, 1 mM tris(2-carboxyethyl) phosphine (TCEP) and were diluted into the biofilm flow medium to a final concentration of 50 nM. When required, […] of erythromycin and/or chloramphenicol were added to the flow cell media to maintain plasmids. The growth medium for flow cell biofilms consisted of 2% TSB plus 0.2% glucose unless otherwise indicated. Flow cell biofilm experiments and confocal microscopy were performed as previously described (Yarwood et al., 2004). Flow cells were inoculated with overnight cultures diluted 1:100 in sterile water and laminar flow ([…]) was initiated after one hour incubation. Confocal microscopy was performed using a Radiance 2100 system (Biorad) with a Nikon Eclipse E600 microscope. Confocal images were processed using Velocity software (Improvision, Lexington, Mass.). Biofilm biomass was quantified with the COMSTAT program (Heydorn et al., 2000) and percent biomass detached was calculated by subtracting biomass present at day 4 from day 2. To quantitate the number of bacteria detaching from a biofilm, 1 ml of flow cell effluent was collected on ice at indicated time points. The collected effluent was vortexed and sonicated in a water bath for 10 minutes to break up clumps, and serial dilutions were plated on TSA plates to determine colony forming units (CFUs). For the Proteinase K detachment experiments, the enzyme (Sigma-Aldrich) was suspended in water and added to the media reservoir at a final concentration of 2 mg/ml.
AIP detaches S. aureus biofilms. To investigate the role of the agr system in established biofilms, the inventors developed strategies to modulate level of agr activity within a biofilm. Initially, media supplementation experiments were performed using purified AIP signal in order to place the agr system under external control. The inventors recently developed a new method for AIP biosynthesis (Malone et al., 2007), enabling the production of sufficient signal levels for flow cell experiments. Through exogenous AIP addition, they could test wild-type strains and avoid any potential complications of constructed agr deletion mutants. For this approach, established flow cell biofilms were prepared using S. aureus SH1000 constitutively expressing RFP with plasmid pAH9. The flow cell media was supplemented with glucose to attenuate agr expression (Regassa et al., 1992), allowing cell attachment and biofilmdevelopment. After two days, either 1 mL of buffer (100 mM phosphate [pH 7], 50 mMNaCl, 1 mMTCEP; FIG. 2A) or 1 mL of […] in buffer (FIG. 2B and Video S1) was diluted 1000-fold (50 nM final concentration) into the growth media. Using the inventors' synthesized AIP-I in dose-response curves (Malone et al., 2007), the inventors estimate the amount of AIP-I in supernatants of TSB broth cultures (OD600 1.0-1.3) reaches approximately 400 nM (data not shown), indicating the 50 nM level used for the biofilm experiments is within a relevant concentration range. […] To confirm that AIP-I caused detachment, the inventors counted viable S. aureus cells in the effluent media (FIG. 2C). […] In contrast, the number of bacteria in the biofilm effluent without AIP-I addition remained relatively constant.

[5] = tested on: agr P3 promoter; assay: agr P3-GFP reporter (pDB59) expression in flow cell biofilms; assay type: cell-based, Staphylococcus aureus
Method: Strains and growth conditions. The bacterial strains and plasmids used in this study are described in Table 1. S. aureus or Escherichia coli were grown in tryptic soy broth (TSB) or on tryptic soy agar (TSA) with the appropriate antibiotics for plasmid selection or maintenance (erythromycin […]; chloramphenicol 10 μg/ml; tetracycline 5 μg/ml) and incubated at 37° C. Plasmid DNA was prepared from E. coli and transformed by electroporation into S. aureus RN4220 as described (Schenk and Laddaga, 1992). Plasmids were moved from RN4220 into other S. aureus strains by transduction with bacteriophage a80 (Novick, 1991) or by purifying the plasmid DNA and transformed by electroporation into appropriate strains. To move sspA and sp1ABCDEF mutations into appropriate genetic backgrounds, phage transduction with a80 was used as described (Novick, 1991). To construct the Daur mutation, the pKOR1-aur plasmid was used as described (Kavanaugh et al., 2007). Fluorescence measurements with S. aureus strains containing pDB59 were performed as previously described (Malone et al., 2007).
as §2, with “plasmids.” for “plasmids. The growth medium for flow cell biofilms consisted of 2% TSB plus 0.2% glucose unless otherwise indicated. Flow cell biofilm experiments and confocal microscopy were performed as previously described (Yarwood et al., 2004). Flow cells were inoculated with overnight cultures diluted 1:100 in sterile water and laminar flow (170 ml/min) was initiated after one hour incubation.”

[6] = tested on: SA502a (agr Type II) biofilm; assay: Flow cell biofilm detachment, agr-II strain; assay type: cell-based, Staphylococcus aureus; conditions: 2-day old biofilm, 50 nM cognate AIP, over 48 hours
Method: as §2

[7] = tested on: S. aureus SH1000 biofilm and detached bacteria; assay: Susceptibility of biofilm and detached bacteria to rifampicin killing; assay type: cell-based, Staphylococcus aureus; conditions: six hours
Method: Antibiotic sensitivity. S. aureus biofilms were grown for two days in a flow chamber lined with removable polycarbonate coupons (Flow Cell FC271, Biosurface Technologies, Bozeman Mont.). Biofilm effluents were collected on ice about 24 hours after AIP-I addition. In parallel, coupons with biofilm growth were removed from flow cells not exposed to AIP-I. Both detached bacteria and the biofilms were exposed to the indicated levels of rifampicin for six hours. Subsequently, cells were vortexed, and the coupons were sonicated in a water bath to break up the biofilm or cell clumps. Serial dilutions were plated on TSA to determine surviving CFU's.
Detached S. aureus cells regain antibiotic sensitivity. Biofilm growth of S. aureus increases resistance to antimicrobials when compared to the planktonic growth mode (Fux et al., 2004; Yarwood et al., 2004). This Biofilm-mediated resistance hinders treatment of many chronic S. aureus biofilm related infections, including endocarditis, osteomyelitis, and indwelling medical device infections (Parsek and Singh, 2003; Costerton et al., 2003). Therefore, the inventors asked whether AIP-dispersed bacteria regained sensitivity to a clinically relevant antibiotic, rifampicin. To test this, the inventors collected detached cells from an AIP-treated biofilm effluent and compared resistance to intact biofilms exposed to different levels of rifampicin. […]

[8] = wild-type SH1000 2-day flow cell biofilm, 50 nM AIP in growth media
[9] = dual-labeled SH1000 (agr type I) biofilm, 50 nM AIP after two days of growth

O=C(O)CN(CCOCCOCCN(CC(=O)O)CC(=O)O)CC(=O)O [EGTA]
effect on overall protease activity of effluent [1]: negligible effect

AIP-I: autoinducing peptide YSTCDFIM (SEQ ID NO: 1), thiolactone bridge between C-terminal residue and internal cysteine (ester (positions not given here); not fully specified (bridges))
protease activity in biofilm effluent ([2]; agr mutant (SH1001) biofilm supplemented with AIP-I): very low levels of extracellular proteases | protease activity in biofilm effluent relative to biofilm without AIP [2]: approximately five-fold | biofilm detachment observed by CLSM [3]: robust detachment | concentration of bacteria in the effluent (CFU/ml) ([4]; 24-36 hours after AIP-I addition (50 nM), versus buffer): increased markedly | biofilm detachment observed by CLSM ([4]; agr deletion mutant (SH1001) biofilm, AIP-I treatment): the mutant biofilm did not disperse | biofilm detachment observed by CLSM [4, 8]: sloughed off the flow cell over a period of 1-2 days | biomass dispersed / detached ([4]; wild-type SH1000, 50 nM AIP-I added to 2-day biofilm, within 48 hrs (day 2 vs day 4), COMSTAT): 91.3 (64.3) % | biomass detached ([4]; Δaur mutant biofilm, 50 nM AIP-I): 54.6% (68.1) | biomass detached ([4]; Δaur Δspl double mutant biofilm, 50 nM AIP-I): 21.7% (66.6) | induction of agr P3-GFP reporter ([5]; agr deletion mutant (SH1001) biofilm with dual reporters, AIP-I): lack of GFP induction | induction of agr P3-GFP reporter [5, 9]: strong induction of the GFP reporter

O=S(=O)(F)Cc1ccccc1 [PMSF, reference compound]
effect on overall protease activity of effluent [1]: reduced overall protease activity to almost undetectable levels | effect on AIP-I mediated biofilm detachment ([4]; 10 mM PMSF in combination with AIP-I versus AIP-I alone): significantly reduced the level of detachment | biomass detached ([4]; wild-type biofilm, 10 mM PMSF in combination with 50 nM AIP-I): 48.8% (65.2)

AIP-II: autoinducing peptide GVNACSSLF (SEQ ID NO: 2), thiolactone bridge between C-terminal residue and internal cysteine (ester (positions not given here); not fully specified (bridges))
protease activity in biofilm effluent relative to biofilm without AIP [2]: reduced the level of proteolytic activity | biofilm detachment observed by CLSM [6]: robust detachment | biofilm detachment observed by CLSM [4, 8]: the biofilm did not disperse | induction of agr P3-GFP reporter [5, 9]: failed to induce GFP expression

CO[C@H]1/C=C/O[C@@]2(C)Oc3c(C)c(O)c4c(O)c(c(/C=N/N5CCN(C)CC5)c(O)c4c3C2=O)NC(=O)/C(C)=C\C=C\[C@H](C)[C@H](O)[C@@H](C)[C@@H](O)[C@@H](C)[C@H](OC(C)=O)[C@@H]1C [rifampicin]
decrease of viable cells ([7]; cells detached by AIP-I, 10 mg/ml rifampicin): 6 log | level of rifampicin killing of the biofilm biomass ([7]; intact biofilm, 100 mg/ml rifampicin): about 2 log units

O[C@@H](CS)[C@@H](O)CS [DTT]
effect on overall protease activity of effluent [1]: did not significantly change protease activity

Reference: patent US20110152176A1, “AGR-MEDIATED INHIBITION AND DISPERSAL OF BIOFILMS” (priority 2008, published 2011)
